In test [1] the target is T1, Heat shock protein HSP90 (Homo sapiens, UniProt P07900+P08238). The experiment in a line: Binding affinity to recombinant human N-terminal GST-tagged HSP90-CTD assessed as induction of fluorescence quenching at 1 mM by fluorescence spectroscopic analysis relative to control. The format is protein assay.
For test [2], the species on record is Homo sapiens. Kind of test: Inhibition of recombinant biotin-labelled HSP90/GST-labelled PPID interaction (unknown origin) at 500 uM by Alphascreen assay relative to control. (Alpha assays give light when donor and acceptor beads are brought close together.)
The nature of test [3]: Binding affinity to GST (unknown origin) by fluorescence spectroscopic analysis. In kind it is ADME, Homo sapiens.
Test [4] concerns the target T1, Heat shock protein HSP90. Kind of test: Binding affinity to recombinant human N-terminal GST-tagged HSP90-CTD by fluorescence spectroscopic analysis. In kind it is protein assay.
Test [5] can be described thus: Inhibition of recombinant biotin-labelled HSP90/GST-labelled PPID interaction (unknown origin) by Alphascreen assay. Also on record: species or system Homo sapiens.

SMILES strings stand for the structures.

The inhibition is the percentage by which the read-out fell short of the control. The term Kd denotes a measure of binding affinity in units of concentration. Broadly, the IC50 is the concentration at which inhibition is half-maximal.

As to `COc1ccc(C(=O)Nc2ccccc2C(=O)N[C@H](C(=O)O)C(C)C)cc1`, the Activity in test [1] is over 30%.

`O=C(O)C1Cc2c([nH]c3ccccc23)C(c2c(O)ccc3ccccc23)N1` (centres undefined): the inhibition in test [2] was over 60%.

As for `NC(Cc1c[nH]c2ccc(OCc3ccccc3)cc12)C(=O)O` (centres undefined), the Kd was determined as 83 µM in test [3] and 28 µM in test [4]. For the same compound, the IC50 in test [5] was 220 µM. The inhibition in test [2] was over 60%. In test [1], the Activity is over 30%.

For the compound `CCCCC(NC/C(=C(/C)O)c1cc2c(c(=O)o1)CCCC2)C(=O)O` (centres undefined), the inhibition in test [2] was over 60%.

Consider `COc1ccc(C(=O)Nc2ccccc2C(=O)NCCC(=O)O)cc1`, for which, in test [1], the Activity was over 30%.

On to `CCOC(=O)c1cnc2ccc(OC)cc2c1Nc1ccccc1C(=O)O`, for which the Activity in test [1] is over 30%.

With `Cc1cc2oc(=O)cc(C)c2cc1NC(=O)CCCCl`, the inhibition in test [2] is over 60%.

As to `COc1ccc2[nH]c3c(c2c1)CCNC3c1cccc(O)c1` (centres undefined), the inhibition in test [2] is over 60%.

In the case of `CC(C)CCn1c(NCCO)nc2c1c(=O)[nH]c(=O)n2C`, in test [1], the Activity was over 30%.

For the compound `Cc1cc(O)c2c(=O)c(-c3csc(C)n3)coc2c1`, the inhibition in test [2] is over 60%.

In the case of `Cc1nc(CC(=O)c2ccc(O)c(O)c2O)cs1`, the Kd in test [3] worked out at 310 µM; in test [4], 102 µM. Further, the IC50 in test [5] was determined as 35 µM. For the same compound, in test [2], the inhibition was over 60%. In test [1], the Activity is over 30%.

(Values after ChEMBL document CHEMBL4732222, “Discovery of novel Hsp90 C-terminal domain inhibitors that disrupt co-chaperone binding” (Bioorg Med Chem Lett, 2021).)
